In PubChem BioAssay (NCI):
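In this assay, cells in 96-well plates receive the compound at five concentrations for 48 hours. Endpoints are linearly interpolated between the surrounding concentrations. GI50 is the concentration that inhibits growth by half. Definition used: TGI = concentration required for complete inhibition of growth.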 *1 amine or outer side, *2 acyl side, *3 side chain or, on linkers, in order; H or OH if unused. Where a SMILES comes first, the peptide text is derived from it. [ ]: non-standard residue; d: D form. ξ: configuration not given here. Ile(3ξ) = CCC(C)[C@H](N)C(=O)O; X33 = C=CCC(O[*:1])C(=O)[*:2]; NMeV = CN[C@H](C(=O)O)C(C)C; NMeA = CN[C@@H](C)C(=O)O; βAla = NCCC(=O)O

Key:
Test in all cases: DTP human tumour cell line panel, 48 h
EKVX NSCLC = test system: EKVX NSCLC
SK-OV-3 ovarian = test system: SK-OV-3 ovarian
SNB-78 CNS = test system: SNB-78 CNS
ACHN renal = test system: ACHN renal
786-0 renal = test system: 786-0 renal
OVCAR-5 ovarian = test system: OVCAR-5 ovarian
NCI-H460 lung = test system: NCI-H460 lung
KM12 colon = test system: KM12 colon
SN12C renal = test system: SN12C renal
M19-MEL melanoma = test system: M19-MEL melanoma
DLD-1 colon = test system: DLD-1 colon
A549 NSCLC = test system: A549 NSCLC
U251 CNS = test system: U251 CNS
HT29 colon = test system: HT29 colon
RPMI-8226 leukemia = test system: RPMI-8226 leukemia
TK-10 renal = test system: TK-10 renal
SNB-75 CNS = test system: SNB-75 CNS
SW-620 colon = test system: SW-620 colon
UO-31 renal = test system: UO-31 renal
HL-60(TB) leukemia = test system: HL-60(TB) leukemia
NCI-H23 lung = test system: NCI-H23 lung
MALME-3M melanoma = test system: MALME-3M melanoma
OVCAR-3 ovarian = test system: OVCAR-3 ovarian
UACC-257 melanoma = test system: UACC-257 melanoma
MOLT-4 leukemia = test system: MOLT-4 leukemia
K-562 leukemia = test system: K-562 leukemia
SF-295 CNS = test system: SF-295 CNS
NCI-H226 lung = test system: NCI-H226 lung
LXFL 529 NSCLC = test system: LXFL 529 NSCLC
RXF-631 renal = test system: RXF-631 renal
RXF 393 renal = test system: RXF 393 renal
DMS 114 small cell lung = test system: DMS 114 small cell lung
KM20L2 colon = test system: KM20L2 colon
SNB-19 CNS = test system: SNB-19 CNS
SF-268 CNS = test system: SF-268 CNS
SR leukemia = test system: SR leukemia
DMS 273 small cell lung = test system: DMS 273 small cell lung
HOP-62 NSCLC = test system: HOP-62 NSCLC
IGROV1 ovarian = test system: IGROV1 ovarian
UACC-62 melanoma = test system: UACC-62 melanoma
COLO 205 colon = test system: COLO 205 colon
OVCAR-8 ovarian = test system: OVCAR-8 ovarian
SK-MEL-2 melanoma = test system: SK-MEL-2 melanoma
M14 melanoma = test system: M14 melanoma
HCT-15 colon = test system: HCT-15 colon
HCT-116 colon = test system: HCT-116 colon
SF-539 CNS = test system: SF-539 CNS
LOX IMVI melanoma = test system: LOX IMVI melanoma
CAKI-1 renal = test system: CAKI-1 renal
SK-MEL-5 melanoma = test system: SK-MEL-5 melanoma
HOP-92 NSCLC = test system: HOP-92 NSCLC
A498 renal = test system: A498 renal
CCRF-CEM leukemia = test system: CCRF-CEM leukemia
OVCAR-4 ovarian = test system: OVCAR-4 ovarian
HCC-2998 colon = test system: HCC-2998 colon
SK-MEL-28 melanoma = test system: SK-MEL-28 melanoma
XF 498 CNS = test system: XF 498 CNS
PC-3 prostate = test system: PC-3 prostate
MDA-MB-435 = test system: MDA-MB-435
MCF7 breast = test system: MCF7 breast
MDA-MB-231 breast = test system: MDA-MB-231 breast
NCI/ADR-RES ovarian = test system: NCI/ADR-RES ovarian
T-47D breast = test system: T-47D breast
BT-549 breast = test system: BT-549 breast
NCI-H522 lung = test system: NCI-H522 lung
DU-145 prostate = test system: DU-145 prostate
HS 578T breast = test system: HS 578T breast

`C=CCC1OC(=O)CCNC(=O)[C@H](C)N(C)C(=O)[C@H](C(C)C)N(C)C(=O)[C@H](C(C)CC)NC(=O)[C@@H]2CCCN2C1=O` (stereo partly specified) (cyclo([Ile(3ξ)][NMeV][NMeA][βAla][X33]P)) gave a TGI (EKVX NSCLC) of over 100 µM, a TGI (SK-OV-3 ovarian) of over 100 µM and a TGI (SNB-78 CNS) of over 100 µM. It also gave a TGI (ACHN renal) of over 100 µM, a TGI (786-0 renal) of over 100 µM and a TGI (OVCAR-5 ovarian) of over 100 µM. The TGI (NCI-H460 lung) was over 100 µM, the TGI (KM12 colon) was over 100 µM and the TGI (SN12C renal) was over 100 µM. For the same molecule, the TGI (M19-MEL melanoma) was over 67.6 µM, the TGI (DLD-1 colon) was over 100 µM and the TGI (A549 NSCLC) was over 100 µM. For the same molecule, the TGI (U251 CNS) was over 100 µM, the TGI (HT29 colon) was over 100 µM and the TGI (RPMI-8226 leukemia) was over 100 µM. The TGI (TK-10 renal) was over 100 µM, the TGI (SNB-75 CNS) was over 90.5 µM and the TGI (SW-620 colon) was over 100 µM. It also gave a TGI (UO-31 renal) of 99.6 µM, a TGI (HL-60(TB) leukemia) of over 100 µM and a TGI (NCI-H23 lung) of over 100 µM. It also gave a TGI (MALME-3M melanoma) of 16.5 µM, a TGI (OVCAR-3 ovarian) of over 100 µM and a TGI (UACC-257 melanoma) of 36.3 µM. The TGI (MOLT-4 leukemia) was over 100 µM, the TGI (K-562 leukemia) was over 71.6 µM and the TGI (SF-295 CNS) was over 100 µM. The TGI (NCI-H226 lung) was 29.2 µM, the TGI (LXFL 529 NSCLC) was over 100 µM and the TGI (RXF-631 renal) was over 100 µM. The TGI (RXF 393 renal) was over 100 µM, the TGI (DMS 114 small cell lung) was over 100 µM and the TGI (KM20L2 colon) was over 52 µM. It also gave a TGI (SNB-19 CNS) of over 100 µM, a TGI (SF-268 CNS) of 58.4 µM and a TGI (SR leukemia) of over 100 µM. It also gave a TGI (DMS 273 small cell lung) of 28.9 µM, a TGI (HOP-62 NSCLC) of over 21 µM and a TGI (IGROV1 ovarian) of over 100 µM. The TGI (UACC-62 melanoma) was over 46.2 µM, the TGI (COLO 205 colon) was over 100 µM and the TGI (OVCAR-8 ovarian) was over 100 µM. The TGI (SK-MEL-2 melanoma) was 12.6 µM, the TGI (M14 melanoma) was 7.87 µM and the TGI (HCT-15 colon) was over 100 µM. For the same molecule, the TGI (HCT-116 colon) was over 100 µM, the TGI (SF-539 CNS) was over 79.4 µM and the TGI (LOX IMVI melanoma) was over 31.7 µM. The TGI (CAKI-1 renal) was over 78.6 µM, the TGI (SK-MEL-5 melanoma) was 10.4 µM and the TGI (HOP-92 NSCLC) was over 30.9 µM. For the same molecule, the TGI (A498 renal) was over 100 µM, the TGI (CCRF-CEM leukemia) was over 100 µM and the TGI (OVCAR-4 ovarian) was over 100 µM. For the same molecule, the TGI (HCC-2998 colon) was 27.7 µM, the TGI (SK-MEL-28 melanoma) was over 100 µM and the TGI (XF 498 CNS) was 41.8 µM.
Molecule `Nc1n[n+](=O)c2ccccc2n1O` has a TGI (EKVX NSCLC) of over 100 µM, a TGI (SK-OV-3 ovarian) of over 100 µM and a TGI (SNB-78 CNS) of over 100 µM. For the same molecule, the TGI (ACHN renal) was over 100 µM, the GI50 (PC-3 prostate) was 94.3 µM and the TGI (PC-3 prostate) was over 100 µM. It also gave a TGI (786-0 renal) of over 100 µM, a TGI (OVCAR-5 ovarian) of over 100 µM and a TGI (NCI-H460 lung) of over 100 µM. The TGI (KM12 colon) was over 100 µM, the TGI (SN12C renal) was over 100 µM and the TGI (M19-MEL melanoma) was over 100 µM. It also gave a GI50 (MDA-MB-435) of over 100 µM, a TGI (MDA-MB-435) of over 100 µM and a TGI (A549 NSCLC) of over 100 µM. The TGI (U251 CNS) was over 100 µM, the TGI (HT29 colon) was over 100 µM and the GI50 (MCF7 breast) was 60.5 µM. The TGI (MCF7 breast) was over 100 µM, the TGI (RPMI-8226 leukemia) was over 100 µM and the TGI (TK-10 renal) was over 100 µM. For the same molecule, the TGI (SNB-75 CNS) was over 100 µM, the TGI (SW-620 colon) was over 100 µM and the TGI (UO-31 renal) was over 100 µM. For the same molecule, the TGI (HL-60(TB) leukemia) was over 100 µM, the GI50 (NCI-H23 lung) was 29.6 µM and the TGI (NCI-H23 lung) was over 100 µM. It also gave a TGI (MALME-3M melanoma) of over 100 µM, a TGI (OVCAR-3 ovarian) of over 100 µM and a GI50 (MDA-MB-231 breast) of over 100 µM. The TGI (MDA-MB-231 breast) was over 100 µM, the TGI (UACC-257 melanoma) was over 100 µM and the TGI (MOLT-4 leukemia) was over 100 µM. It also gave a TGI (K-562 leukemia) of over 100 µM, a GI50 (NCI/ADR-RES ovarian) of 55.2 µM and a TGI (NCI/ADR-RES ovarian) of over 100 µM. For the same molecule, the TGI (SF-295 CNS) was over 100 µM, the TGI (NCI-H226 lung) was over 100 µM and the TGI (LXFL 529 NSCLC) was over 100 µM. For the same molecule, the TGI (RXF-631 renal) was over 100 µM, the GI50 (T-47D breast) was 38.4 µM and the TGI (T-47D breast) was over 100 µM. For the same molecule, the TGI (RXF 393 renal) was over 100 µM, the TGI (DMS 114 small cell lung) was over 100 µM and the GI50 (BT-549 breast) was 19.3 µM. For the same molecule, the TGI (BT-549 breast) was over 100 µM, the TGI (SNB-19 CNS) was over 100 µM and the TGI (SF-268 CNS) was over 100 µM. It also gave a GI50 (SR leukemia) of 20.6 µM, a TGI (SR leukemia) of over 100 µM and a TGI (DMS 273 small cell lung) of over 100 µM. It also gave a TGI (HOP-62 NSCLC) of over 100 µM, a TGI (IGROV1 ovarian) of over 100 µM and a TGI (UACC-62 melanoma) of over 100 µM. The TGI (COLO 205 colon) was over 100 µM, the TGI (OVCAR-8 ovarian) was over 100 µM and the TGI (SK-MEL-2 melanoma) was over 100 µM. It also gave a TGI (M14 melanoma) of over 100 µM, a TGI (HCT-15 colon) of over 100 µM and a GI50 (HCT-116 colon) of 62.9 µM. The TGI (HCT-116 colon) was over 100 µM, the TGI (SF-539 CNS) was over 100 µM and the TGI (LOX IMVI melanoma) was over 100 µM. For the same molecule, the TGI (NCI-H522 lung) was over 100 µM, the TGI (CAKI-1 renal) was over 100 µM and the TGI (SK-MEL-5 melanoma) was over 65.7 µM. The GI50 (DU-145 prostate) was 69.1 µM, the TGI (DU-145 prostate) was over 100 µM and the TGI (HOP-92 NSCLC) was over 100 µM. It also gave a GI50 (A498 renal) of 11.9 µM, a TGI (A498 renal) of over 100 µM and a GI50 (HS 578T breast) of over 100 µM. It also gave a TGI (HS 578T breast) of over 100 µM, a TGI (CCRF-CEM leukemia) of over 100 µM and a TGI (OVCAR-4 ovarian) of over 100 µM. The GI50 (HCC-2998 colon) was 50.7 µM, the TGI (HCC-2998 colon) was over 100 µM and the TGI (SK-MEL-28 melanoma) was over 100 µM. It also gave a TGI (XF 498 CNS) of over 100 µM.
